Data from patent publication US9809521B2, “Cannabidinoid derivatives” (priority 2011, dated 2017).

What was measured:
U251 cells = assay: Organotypic brain slice invasion assay; format: cell-based, human; settings: 1 μM
Method: Effects of CBD on GBM cell invasion in In Vivo Studies. To determine whether CBD could inhibit GBM cell invasion through intact brain tissue, an organotypic brain slice assay was utilized. GFP-labeled U251 cells were treated for two days in culture with vehicle or CBD. On the third day, the cells were harvested and transferred to the top of a 0.5 mm coronal rat brain slice obtain from a postnatal day 3 rat pup. A porous cell culture insert containing the slice was suspended for three days in a well containing conditioned media with either vehicle or 1 μM CBD. […] GBM tumors were generated in nu/nu mice by intracranial injection of U251 GBM cells. […] CBD produced a robust reduction of GBM progression, decreasing the tumor area by 95% (FIG. 14, panels B and C). […] This occurred concomitantly with a decrease in tumor cell proliferation (the number of Ki67-positive nuclei was decreased by 87%±9 (p<0.0001, Student's t-test)) (FIG. 14, panel D).

U251 GBM cells = assay: Viability assay, combination with Temozolomide; format: cell-based, human
Method: Viability Assays using drug combinations and statistical analysis: Multiple viability assays in a 96 well format were run for each compound and the average percent inhibition of cell viability was calculated and transformed to fraction affected (Fa) i.e., percent inhibitory effect. Additional CI values and a dose reduction index (DRI) were also calculated using Compusyn software. After determining the (IC50/Fa0.5) values of the drugs individually, components were then combined at the following concentration ranges: controls, 0.125×IC50, 0.25×IC50, 0.5×IC50 and a combination index was calculated where CI<1, =1, and >1 indicate synergism, additive effect, and antagonism, respectively.
Cell viability studies with U251 GBM cells using CBD in combination with Temozolomide. […] The concentration response curves were first generated for temozolomide, CBD alone, and a combination of CBD and temozolomide (FIG. 16, panel A). The inhibitory values from the concentration response curves were then used to calculate combination index (CI) values at multiple combination ratios (FIG. 16, panel B). From which, the data was also used to calculate (i) IC50 values, the slope of the curve (m) and a goodness of fit value (r).

pERK, JNK, p38 MAPK = assay: Western analysis of MAPK activity in U251 cells
U87 cells = assay: MTT cell proliferation assay; settings: Homo sapiens, U-87 MG, 72 h, read-out: CBD IC50, U87
Id-1 gene = assay: PCR of Id-1 mRNA expression in MDA-MB231 cells; format: cell-based, human
Method: Polymerase Chain Reaction: Total cellular RNA was isolated from breast cancer cells treated with vehicle control or with CBD. Transcripts for Id-1 and for β-actin were reverse transcribed using SuperscriptII Reverse TranscriptaseII (Gibco-BRL), and polymerase chain reaction performed. The 5′ and 3′ PCR primers were […] (SEQ ID NO:1) and […] (SEQ ID NO:2) for Id-1; and […] (SEQ ID NO:3) and […] (SEQ ID NO:4) for β-actin. PCR was performed in buffer containing 1 μM of each of the 5′ and 3′ PCR primer and 0.5 U of Taq polymerase using 25 cycles for amplification of Id-1 and β-actin cDNAs. The cycle conditions were 45 sec denaturation at 94° C., 45 sec annealing at 55° C., and 1 min extension at 72° C.
Gene Expression Assays looking at Id-1 gene epression with CBD in MDA-MB231 cells. […] To determine if this effect was due to the inhibition of transcription, a construct was used that contained the Id-1 promoter fused to a luciferase reporter in a PGL-3 basic vector. This construct was transiently transfected into MDA-MB231 cells. Twenty-four hours after transfection, MDA-MB231-Id-1-luc cells were treated with CBD for 2 or 3 days and luciferase activity was measured (FIG. 3, panel B and panel C). […] These findings correlated to the data obtained when the expression of the Id-1 protein was assessed by Western analysis.

ACCM cells = assay: Lung metastasis after injection of ACCM cells; format: in vivo, mouse; settings: daily treatment
Method: Measuring the effect of CBD on the aggressiveness of head and neck as well as salivary gland cancer cells. Head and neck cancer cell lines (SAS and HSC-2 in the upper panels) and salivary gland cancer cell lines (ACCM and ACC2 in the lower panels) were treated with CBD.

[1] = Tetrad assay (psychoactive properties of cannabinoids); settings: in vivo

Structure (SMILES): C=C(C)[C@@H]1CCC(C)=C[C@H]1c1c(O)cc(CCCCC)cc1O [CBD, cannabidiol]
- invasion of U251 cells through the organotypic brain slice (U251 cells): highly effective at inhibiting invasion
- interaction with Temozolomide (combination index) (U251 GBM cells): acts synergistically with Temozolomide
- p-ERK, higher concentrations alone (pERK, JNK, p38 MAPK; 2.5 μM Δ^9-THC, 2.0 μM CBD, three days): small inhibition of p-ERK
- pERK (pERK, JNK, p38 MAPK; THC 1.7 μM, CBD 0.4 μM, two days): no changes in pERK were observed
- IC50 (U87 cells): 700 nM
- Id-1 mRNA expression (Id-1 gene): significantly reduced
- number of lung metastatic foci (ACCM cells): significantly reduced upon CBD treatment

Structure (SMILES): CCCCC(C)(C)c1cc(O)c(C2CCC(C3CCCCC3)CC2)c(O)c1 (centres unmarked) [Compound O-1663]
- activity in the tetrad assay [1]: little activity in the tetrad assay
